Measured values published in patent publication US20240252677A1, “ONE-COMPONENT DELIVERY SYSTEM FOR NUCLEIC ACIDS” (The Trustees of the University of Pennsylvania, priority 2021, published 2024).

What was measured:
liver = assay: In vivo mRNA delivery, IVIS imaging of organs: liver; design: species or system mice; key to Organs with luminescence: liver: strong: Strong meant the luminescence intensity in that organ was relatively high, compared to other organs; weak: Weak meant the luminescence intensity in that organ was relatively low, compared to other organs; settings: for Organs with luminescence: liver (weak/strong): Table 14; for Organs with luminescence: liver: Table 17, mice, IVIS, 4-6 h after injection, intensity relative to other organs
Description: (§1) The exposure time was 1 min.
(§2) Tissue luminescence signal was measured on the IVIS imaging system using an exposure time of 60 seconds using medium binning (binning=8) to ensure that the signal obtained was within operative detection range. […] Bioluminescence imaging was performed as described above.
(§3) Tissue luminescence signal was measured on the IVIS imaging system using a certain exposure time (60, 30 or 15 seconds) and medium binning (binning=8) to ensure that the signal obtained was within operative detection range.

BALB/c mice = assay: In vivo mRNA delivery in mice with DNPs, whole-body bioluminescence imaging (IVIS)
Description: as §1
Luminescence characterization for in vivo transfection experiments employed bioluminescence imaging with an IVIS Spectrum imaging system (PerkinElmer, Waltham, MA). Mice were anesthetized with 3% of isoflurane (Piramal Healthcare Limited) and intraperitoneally (i.p.) administered with D-luciferin (Regis Technologies) at a dose of 150 mg/kg of body weight. Ten minutes post administration of D-luciferin, mice were placed on the imaging platform while being maintained on isoflurane via a nose cone and imaged using an exposure time of 60 seconds. […] To quantify luminescent flux, an oval ROI was placed over each organ of interest and analyzed.
as §2
Luminescence Characterization for In Vivo Transfection Experiments: bioluminescence imaging was performed with an IVIS Spectrum imaging system (PerkinElmer, Waltham, MA).

lung = assay: In vivo mRNA delivery, IVIS imaging of organs: lung; design: species or system mice; key to Organs with luminescence: lung: strong: Strong meant the luminescence intensity in that organ was relatively high, compared to other organs; weak: Weak meant the luminescence intensity in that organ was relatively low, compared to other organs; settings: for Organs with luminescence: lung (weak/strong): Table 14; for Organs with luminescence: lung: Table 17, mice, IVIS, 4-6 h after injection, intensity relative to other organs
Description: as §1, §2, §3

HEK293T cells = assay: In vitro Luc-mRNA transfection, luciferase luminescence expression in HEK293T cells; type: cell-based, human; design: unit not given here; settings: HEK293T cells, Luc-mRNA 125 ng/well, n=3
Description: In Vitro Transfection Activity of DNPs in Human Embrionic Kidney (HEK) 293T Cells: HEK293T cells were seeded into 96-well plates (20,000 cells/well/200 μL) and cultured for 24 h at 37° C. in 5% CO2 complete cell culture media. Screening experiments were performed with nonoptimized DNPs containing naked nucleoside-modified mRNA (Karikó, et al., Immunity 2005, 23, 165-175; Pardi, et al., Methods Mol. Biol. 2013, 969, 29-42), of molar mass 664,341 encoding firefly luciferase (mRNA-Luc). A constant concentration of mRNA-Luc of 125 ng/well was used. The transIT (TransIT-mRNA transfection Kit from Mirus Bio) and MC3-based LNPs (MC3: DLin-MC3-DMA, which is the FDA approved LNP for mRNA delivery) were used as positive controls for cell transfection at a concentration of mRNA-Luc of 125 ng/well, identical to that of the tested DNPs. Subsequently cells were cultured for 24 h, the medium was aspirated under reduced pressure by a glass pipette and cells were lysed with 30 μL/well of cell culture lysis reagent (Promega). The luminescence intensity corresponding to the luciferase protein expressed was characterized and analyzed.
In vitro mRNA Delivery: Human embryonic kidney (HEK) 293T cells (American Type Culture Collection) were cultured in Dulbecco's modified Eagle's medium (DMEM) supplemented with 10% inactivated fetal bovine serum (FBS) (Gemini Bio-Products), 2 mM L-glutamine and 100 U/mL penicillin/streptomycin (Life Technologies) (complete medium). For in vitro screening experiments, HEK293T cells were seeded into 96-well plates (20,000 cells/well/200 μL) and cultured for 24 h in at 37° C. and 5% CO2 in complete media. Cell were transfected with IAJDs with encapsulated naked nucleoside-modified mRNA encoding firefly luciferase (mRNA-Luc) with fixed concentration of mRNA-Luc, 125 ng per well. The transIT (TransIT®-mRNA Transfection Kit, Mirus Bio) was used as a positive control for cell transfection, accordingly per manufacturer protocol and added to cells at the concentration of mRNA-Luc, 125 ng per well, the same as for tested particles. Cells were further cultured for 24 h, then medium was aspirated, and cells were lysed with 30 μL/well of cell culture lysis reagent (Promega). For the characterization of luminescence intensity, 2.5 μL of the lysed cells was mixed with 10 μL of luciferase assay substrate and luminescence was analyzed using a MiniLumat LB 9506 luminometer (Berthold/EG&G; Wallac).
Luminescence characterization for in vitro transfection experiments was performed by determining the luminescence intensity for in vitro Luc-mRNA transfection experiments using a MiniLumat LB 9506 luminometer (Berthold/EG&G; Wallac).
For in vitro Luc-mRNA transfection screening experiments, human embryonic kidney 293 cells (HEK 293) were seeded into 96-well plates (20,000 cells/well/200 μL) and cultured for 18-20 hours at 37° C., 5% CO2 in complete Dulbecco's modified Eagle's medium (DMEM) supplemented with 2 mM L-glutamine (Life Technologies), 100 U/mL penicillin/streptomycin (Invitrogen) and 10% fetal bovine serum (FBS, Gemini Bio-Products). Cells were transfected with DNPs with encapsulated naked nucleoside-modified mRNA encoding firefly luciferase (Luc-mRNA) at constant concentration of Luc-mRNA, 125 ng per well. Luc-mRNA complexed with TransIT (TransIT®-mRNA Transfection Kit, Mirus Bio) or encapsulated in FDA approved MC3-based LNPs were used as positive controls for cell transfection, at the concentration of Luc-mRNA of 125 ng per well, the same as for tested DNPs. After transfection cells were further cultured at 37° C., 5% CO2 for 18-20 hours, then medium was aspirated and cells were lysed with luciferase cell culture lysis reagent (30 μL/well) (Promega, Madison, WI). […]

CCCCCCCCCCCCCCCCCCOc1cc(COC(=O)CCCN2CCN(C)CC2)cc(OCCCCCCCCCCC)c1 [IAJD 81, 3-(Octadecyloxy)-5-(undecyloxy)benzyl 4-(4-methylpiperazin-1-yl)butanoate]
Organs with luminescence: liver (weak/strong) (liver; imaging 6 h after injection): liver (strong), | Organs with luminescence: liver (liver): liver (strong), | In vivo activity (total flux, p/s) (BALB/c mice; Table 19, nonsymmetric IAJDs): 2.32 × 10^7 p/s | In vivo activity (total flux, p/s) (BALB/c mice; Table 20, nonsymmetric IAJDs and MC3-Luc-mRNA): 2.32 × 10^7 p/s | Organs with luminescence: lung (weak/strong) (lung; imaging 6 h after injection): Lung (weak), | Organs with luminescence: lung (lung): Lung (weak), | Luminescence (HEK293T cells): 206,161

CCCCCCCOC(=O)CCCCOc1cc(COC(=O)CCCN2CCN(C)CC2)cc(OCCCCC(=O)OCCCCCCC)c1 [IAJD 85, Diheptyl 5,5′-((5-(((4-(4-methylpiperazin-1-yl)butanoyl)oxy)methyl)-1,3-phenylene)bis(oxy)) dipentanoate]
Organs with luminescence: liver (weak/strong) (liver; imaging 5 h after injection): liver (weak), | Organs with luminescence: lung (weak/strong) (lung; imaging 5 h after injection): Lung (weak), | Luminescence (HEK293T cells): 47,369

CCCCCCCCCCCCCCCCOc1cc(COC(=O)CCCN2CCN(C)CC2)cc(OCCCCCCCCCCC)c1 [IAJD 86, 3-(Hexadecyloxy)-5-(undecyloxy)benzyl 4-(4-methylpiperazin-1-yl)butanoate]
Organs with luminescence: liver (weak/strong) (liver; imaging 5 h after injection): liver (strong), | Organs with luminescence: liver (liver): liver (strong), | In vivo activity (total flux, p/s) (BALB/c mice; Table 19, nonsymmetric IAJDs): 4.73 × 10^7 p/s | Organs with luminescence: lung (weak/strong) (lung; imaging 5 h after injection): Lung (weak), | Organs with luminescence: lung (lung): Lung (weak), | Luminescence (HEK293T cells): 47,066

CCCCC(CC)COc1cc(COC(=O)CCCN2CCN(CCO)CC2)cc(OCC(CC)CCCC)c1 (stereo not shown) [IAJD 87, 3,5-Bis((2-ethylhexyl)oxy)benzyl 4-(4-(2-hydroxyethyl)piperazin-1-yl)butanoate]
Organs with luminescence: liver (weak/strong) (liver; imaging 6 h after injection): liver (weak), | Organs with luminescence: lung (weak/strong) (lung; imaging 6 h after injection): Lung (weak), | Luminescence (HEK293T cells): 33

CCCCCCCCOc1cc(COC(=O)CCCN2CCN(C)CC2)cc(OCCCCCCCC)c1 [IAJD 88, 3,5-Bis(octyloxy)benzyl 4-(4-methylpiperazin-1-yl)butanoate]
Organs with luminescence: liver (weak/strong) (liver; imaging 6 h after injection): liver (weak), | Organs with luminescence: lung (weak/strong) (lung; imaging 6 h after injection): Lung (weak), | Luminescence (HEK293T cells): 17

CCCCCCCCOc1cc(COC(=O)CCCN2CCN(CCO)CC2)cc(OCCCCCCCC)c1 [IAJD 89]
Organs with luminescence: liver (weak/strong) (liver; imaging 6 h after injection): liver (weak), | Organs with luminescence: lung (weak/strong) (lung; imaging 6 h after injection): Lung (weak), | Luminescence (HEK293T cells): 55

CCCCCCCCCCOc1cc(COC(=O)CCCN2CCN(CCO)CC2)cc(OCCCCCCCCCC)c1 [IAJD 91, 3,5-Bis(decyloxy)benzyl 4-(4-(2-hydroxyethyl)piperazin-1-yl)butanoate]
Organs with luminescence: liver (weak/strong) (liver; imaging 6 h after injection): liver (weak), | Organs with luminescence: lung (weak/strong) (lung; imaging 6 h after injection): Lung (weak), | Luminescence (HEK293T cells): 65,255

CCCCC(CC)COC(=O)CCCCOc1cc(COC(=O)CCCN2CCN(CCO)CC2)cc(OCCCCC(=O)OCC(CC)CCCC)c1 (stereo not shown) [IAJD 95]
Organs with luminescence: liver (weak/strong) (liver; imaging 6 h after injection): liver (weak), | Organs with luminescence: lung (weak/strong) (lung; imaging 6 h after injection): Lung (weak), | Luminescence (HEK293T cells): 153,564

CCCCC(CC)COc1cc(COC(=O)CCCN2CCN(C)CC2)cc(OCC(CC)CCCC)c1OCC(CC)CCCC (stereo not shown) [IAJD 96, 3,4,5-Tris((2-ethylhexyl)oxy)benzyl 4-(4-methylpiperazin-1-yl)butanoate]
Organs with luminescence: liver (weak/strong) (liver; imaging 5 h after injection): liver (weak), | Organs with luminescence: lung (weak/strong) (lung; imaging 5 h after injection): Lung (weak), | Luminescence (HEK293T cells): 22,799

CCCCC(CC)COc1cc(COC(=O)CCCN2CCN(CCO)CC2)cc(OCC(CC)CCCC)c1OCC(CC)CCCC (stereo not shown) [IAJD 97, 3,4,5-Tris((2-ethylhexyl)oxy)benzyl 4-(4-(2-hydroxyethyl)piperazin-1-yl)butanoate]
Organs with luminescence: liver (weak/strong) (liver; imaging 5 h after injection): liver (weak), | Organs with luminescence: lung (weak/strong) (lung; imaging 5 h after injection): Lung (weak), | Luminescence (HEK293T cells): 342,016

CCCCCCCCCCCCCCCCCCOc1cc(COC(=O)CCCN2CCN(C)CC2)cc(OCCCCCCCCCCCCCCCCCC)c1 [IAJD 98, 3,5-Bis(octadecyloxy)benzyl 4-(4-methylpiperazin-1-yl)butanoate]
Organs with luminescence: liver (weak/strong) (liver; imaging 6 h after injection): liver (weak), | Organs with luminescence: lung (weak/strong) (lung; imaging 6 h after injection): Lung (weak), | Luminescence (HEK293T cells): 22,209

CCCCCCCCCCCCCCCCCCOc1cc(COC(=O)CCCN2CCN(CCO)CC2)cc(OCCCCCCCCCCCCCCCCCC)c1 [IAJD 99, 3,5-Bis(octadecyloxy)benzyl 4-(4-(2-hydroxyethyl)piperazin-1-yl)butanoate]
Organs with luminescence: liver (weak/strong) (liver; imaging 6 h after injection): liver (weak), | Organs with luminescence: lung (weak/strong) (lung; imaging 6 h after injection): Lung (weak), | Luminescence (HEK293T cells): 87,433

CCCCCCCCCCCCCCOc1cc(COC(=O)CCCN2CCN(C)CC2)cc(OCCCCCCCCCCC)c1 [IAJD 105, 3-(Tetradecyloxy)-5-(undecyloxy)benzyl 4-(4-methylpiperazin-1-yl)butanoate]
Organs with luminescence: liver (weak/strong) (liver; imaging 6 h after injection): liver (strong), | Organs with luminescence: liver (liver): liver (strong), | In vivo activity (total flux, p/s) (BALB/c mice; Table 19, nonsymmetric IAJDs): 4.74 × 10^7 p/s | Organs with luminescence: lung (weak/strong) (lung; imaging 6 h after injection): Lung (weak), | Organs with luminescence: lung (lung): Lung (weak), | Luminescence (HEK293T cells): 85

CCCCCCCCCCCCCCCCOc1cc(COC(=O)CCCN2CCN(C)CC2)cc(OCCCCCCCCCCCC)c1 [IAJD 106, 3-(Dodecyloxy)-5-(hexadecyloxy)benzyl 4-(4-methylpiperazin-1-yl)butanoate]
Organs with luminescence: liver (weak/strong) (liver; imaging 6 h after injection): liver (weak), | Organs with luminescence: liver (liver): liver (weak), | In vivo activity (total flux, p/s) (BALB/c mice; Table 19, nonsymmetric IAJDs): 3.48 × 10^7 p/s | Organs with luminescence: lung (weak/strong) (lung; imaging 6 h after injection): Lung (weak), | Organs with luminescence: lung (lung): Lung (weak), | Luminescence (HEK293T cells): 309
